Experimental data taken from patent US20260078454A1, “MULTIPLE ANTIBIOTIC BACTERIAL RESPONSE” (priority 2022, published 2026).

How the values were obtained:
[1] = system: Acinetobacter baumannii; format: cell-based; conditions: for differentially expressed transcripts in common between amikacin and gentamicin: 3.5 hours of exposure; for number of differentially expressed transcripts: pan-susceptible strain, MIC breakpoint, vs no-antibiotic control
Method: A pan-susceptible Acinetobacter baumannii was cultured and exposed to each of the nine conditions (including a no-antibiotic control) above as a single-exposure condition, meaning only one antibiotic per sample, no combination of drugs. Antibiotics were dosed at the resistance break point concentration (MIC breakpoint) for each compound according to the 2023 CLSI M100 guidelines. Antibiotic-treated and control cultures were maintained for 0.5 hours, 1.5 hours, 2.5 hours, and 3.5 hours and subsequently harvested to conduct RNA-seq, as discussed above in Example 3. Multiple replicates of this experimental set-up were performed to assess variance of the transcriptional response.
Cultures at the appropriate OD595 were transferred to a 37° C. incubator until the OD595 was between 0.9-1.4. The culture was distributed into individual treatment tubes containing antibiotics (or not for the control condition) and incubated at 37° C. for the specified exposure times (0.5, 1.5, 2.5, 3.5 hrs). At each timepoint, an aliquot of each of the treated and control culture conditions was removed and nucleic acid was extracted on the bioMérieux EMAG platform. […] The nucleic acid extracts were then treated with DNAse to remove all genomic DNA and extracted a second time, resulting in a pure RNA sample for each condition. These RNA samples were sent to the High-Throughput Genomics Core at the Huntsman Cancer Institute at the University of Utah for RNA-sequencing on the Illumina NovaSeq 6000 platform. A total of five biological replicates were made, which would result in 180 RNA-seq samples (36*5), although due to some instrument difficulties an actual total of 161 samples were sent to the sequencing core lab.
Differential expression analysis of RNA-seq read data is as follows. Read data was adapter and quality trimmed using bbduk (bbmap_38.86). Adapter and quality trimmed reads (fastq) were mapped to an Acinetobacter baumannii genome using Kallisto (Kallisto v0.48.0) to generate read counts for each annotated transcript in the genome. Read count data (all conditions) were normalized using Sleuth (0.30.1) and differential expression tests conducted between each independent antibiotic exposure condition and the no-antibiotic time matched control using the lrt test within Sleuth using a qvalue significance cutoff of 0.05 to determine differential expression. Lists of differentially expressed transcripts for each antibiotic and each timepoint were generated and aggregated according to the MOA classes (see prior) to determine if there was significant overlap in the transcriptional response to each MOA class of antibiotics.

[2] = system: Pseudomonas aeruginosa; test: RNA-seq differential expression after single and combined antibiotic exposure; format: cell-based; conditions: pan susceptible strain; CLSI resistance break point concentration; 60 minutes; regardless of whether the other two antibiotics were present
Method: RNA-sequencing (“RNA-seq”) was conducted using two strains of Pseudomonas aeruginosa: one a resistant strain and the second a pan susceptible strain. The strains were cultured to an optical density of 1.0, or approximately 1.5×10^9 genomic copies/mL (measured using digital PCR). The culture was then aliquoted into four independent culture tubes, three of which contained one single antibiotic and the fourth was a no-antibiotic control. Once mixed with antibiotics, where each antibiotic was dosed at its CLSI resistance break point concentration based upon 2021 guidance, the culture aliquots were returned to an incubator set to 37° C. using ambient air and agitated using orbital mixing for 60 minutes. […] Recovered reads were processed through an internal RNA-seq bioinformatics pipeline that includes the following steps: read quality and adapter trimming, surviving reads were assigned a genomic position in the reference P. aeruginosa genome PA01 using Kallisto (and read counts with dispersion estimates calculated), and differential expression analysis comparing each antibiotic treatment with the no-antibiotic control data set were conducted using Sleuth for each strain. […]

Molecule | differentially expressed transcripts in common between amikacin and gentamicin [1] | number of differentially expressed transcripts ([1]; 0.5 hrs of exposure) | regulation of antibiotic specific response transcripts [2] | overlap of gentamicin response with amikacin response ([1]; 0.5 hrs of exposure)
NCC[C@H](O)C(=O)N[C@@H]1C[C@H](N)[C@@H](O[C@H]2O[C@H](CN)[C@@H](O)[C@H](O)[C@H]2O)[C@H](O)[C@H]1O[C@H]1O[C@H](CO)[C@@H](O)[C@H](N)[C@H]1O [amikacin] | 93.2% | 1825 |  | 
C[C@H]1COc2c(N3CCN(C)CC3)c(F)cc3c(=O)c(C(=O)O)cn1c23 [levofloxacin] |  | 1394 |  | 
C[C@@H](O)[C@H]1C(=O)N2C(C(=O)O)=C(S[C@@H]3CN[C@H](C(=O)N(C)C)C3)[C@H](C)[C@H]12 [meropenem] |  |  | up regulation of five transcripts | 
gentamicin | 93.2% | 6 | up regulation of eight transcripts | fully contained within the amikacin response
